Experimental data as given in patent US4537777A, “A52688 Antibiotics and process for their production” (priority 1983, dated 1985).
Where two headings read alike, the source gives them in different places.

Tests used:
[1] = system: Staphylococcus aureus; assay: standard disc-plate assay; assay type: cell-based; conditions: read-out: Zone Diameters
[2] = system: Bacillus subtilis; assay: standard disc-plate assay; assay type: cell-based; conditions: read-out: Zone Diameters
[3] = system: Micrococcus luteus; assay: standard disc-plate assay; assay type: cell-based; conditions: read-out: Zone Diameters
[4] = system: Mycobacterium avium; assay: standard disc-plate assay; assay type: cell-based; conditions: read-out: Zone Diameters
[5] = system: Saccharomyces pastorianus; assay: standard disc-plate assay; assay type: cell-based; conditions: read-out: Zone Diameters
[6] = system: Neurospora crassa; assay: standard disc-plate assay; assay type: cell-based; conditions: read-out: Zone Diameters
[7] = system: Candida albicans; assay: standard disc-plate assay; assay type: cell-based; conditions: read-out: Zone Diameters
[8] = system: Trichophyton mentagroprophytes; assay: standard disc-plate assay; assay type: cell-based; conditions: read-out: Zone Diameters
[9] = system: Proteus vulgaris; assay: standard disc-plate assay; assay type: cell-based; conditions: read-out: Zone Diameters
[10] = system: Salmonella gallinarium; assay: standard disc-plate assay; assay type: cell-based; conditions: read-out: Zone Diameters
[11] = system: Escherichia coli; assay: standard disc-plate assay; assay type: cell-based
Experimental: In Table IX the standard discplate-assay activity of the A52688 factors is summarized. Activity is measured as the diameter (in mm) of the observed zone of inhibition; the diameter of the disc used in each case was 6.35 mm.

[12] = system: Pseudomonas aeruginosa; assay: standard disc-plate assay; assay type: cell-based; conditions: read-out: Zone Diameters
[13] = system: Serratia marcescens; assay: standard disc-plate assay; assay type: cell-based; conditions: read-out: Zone Diameters
[14] = system: Pseudomonas solanacearum; assay: microbe, parasite or virus in culture; assay type: cell-based; conditions: Ralstonia solanacearum, read-out: Zone Diameters
[15] = system: Bacillus stereothermophilus; assay: standard disc-plate assay; assay type: cell-based; conditions: read-out: Zone Diameters
[16] = moisture absorption; assay type: physicochemical
[17] = system: Adenocarcinoma 755; assay: murine-transplanted tumor adenocarcinoma 755 in mice; assay type: in vivo
Experimental: (§1) A52688 factors A, C, D, E, F, G, H, J and K and the specified acyl esters of factors A, C, D, E, G, H, J and K are especially useful as oncolytic agents.
Table X summarizes the results of experiments in which mice bearing the murine-transplanted tumor adenocarcinoma 755 were treated with compounds of this invention. In each test the compound was administered by the intraperitoneal route at specified dose levels. The compound was administered over a ten-day period, either on a daily basis or on days one, five and nine, as indicated.

[18] = acute toxicity in mice; conditions: mouse, in vivo, formulated in aqueous PVP
From the text: ^a Compounds formulated in aqueous PVP
^b Route test compound administered

[19] = system: Lewis lung tumor; assay: tumor growth test in mice; assay type: in vivo; conditions: tests in mice
From the text: as §1

[20] = system: lymphosarcoma 6L3 HED; assay: tumor growth test in mice; assay type: in vivo; conditions: tests in mice
From the text: as §1

[21] = system: ovarian M-5 tumor; assay: tumor growth test in mice; assay type: in vivo; conditions: tests in mice
From the text: as §1

[22] = system: plasma cell myeloma X-5563; assay: tumor growth test in mice; assay type: in vivo; conditions: tests in mice
From the text: as §1

[23] = system: solid leukemia P1534J; assay: tumor growth test in mice; assay type: in vivo; conditions: tests in mice
From the text: as §1

[24] = read-out: Zone Diameters, in minimal medium, conc 0.1 mg/ml, disc 6.35 mm
[25] = ip, intraperitoneal, read-out: Intraperitoneal LD50

[C-]#[N+]C(=CC1CCC(OC(=O)CC(C)C)CC1)C(=CC1(OC(C)=O)C=CC(O)CC1)[N+]#[C-] (centres unmarked) [Factor K]
zone of inhibition at 100 µg/mL [1]: 25 mm
zone of inhibition at 100 µg/mL [2]: 18 mm
zone of inhibition at 100 µg/mL [3]: 29 mm
zone of inhibition at 100 µg/mL [4]: 11 mm
zone of inhibition at 100 µg/mL [5]: 20 mm
zone of inhibition at 100 µg/mL [6]: 37 mm
zone of inhibition at 100 µg/mL [7]: 20 mm
zone of inhibition at 100 µg/mL [8]: 32 mm
zone of inhibition at 100 µg/mL [9]: 19 mm
zone of inhibition at 100 µg/mL [10]: 17 mm
zone of inhibition at 100 µg/mL [11, 24]: 11 mm
zone of inhibition at 100 µg/mL [12]: 11 mm
zone of inhibition at 100 µg/mL [13]: 11 mm
zone of inhibition at 100 µg/mL ([14]; conc 0.1 mg/ml): 19 mm
zone of inhibition at 100 µg/mL [15]: 25 mm
moisture absorption [16]: absorbs moisture readily

[C-]#[N+]C(=CC1=C[C@@H](O)[C@H](O)CC1)C(=CC1CCC(OC(=O)C=C(C)C)CC1)[N+]#[C-] (relative stereo) [Factor A]
zone of inhibition at 100 µg/mL [1]: 26 mm
zone of inhibition at 100 µg/mL [2]: 30 mm
zone of inhibition at 100 µg/mL [3]: 36 mm
zone of inhibition at 100 µg/mL [4]: 14 mm
zone of inhibition at 100 µg/mL [5]: 20 mm
zone of inhibition at 100 µg/mL [6]: 39 mm
zone of inhibition at 100 µg/mL [7]: 33 mm
zone of inhibition at 100 µg/mL [8]: 45 mm
zone of inhibition at 100 µg/mL [9]: 24 mm
zone of inhibition at 100 µg/mL [10]: 21 mm
zone of inhibition at 100 µg/mL ([11]; read-out: Zone Diameters, conc 0.1 mg/ml, disc 6.35 mm): 24 mm
zone of inhibition at 100 µg/mL [11, 24]: 20 mm
zone of inhibition at 100 µg/mL [12]: 23 mm
zone of inhibition at 100 µg/mL [13]: 20 mm
zone of inhibition at 100 µg/mL ([14]; conc 0.1 mg/ml): 26 mm
zone of inhibition at 100 µg/mL [15]: 35 mm
Percent Tumor Inhibition ([17]; 0.25 mg/kg i.p., daily for 10 days): 3%
Toxic Deaths ([17]; 0.25 mg/kg i.p., daily for 10 days, of 10 mice tested (9 for factor E)): 0
Percent Tumor Inhibition ([17]; 0.30 mg/kg i.p., daily for 10 days): 55%
Toxic Deaths ([17]; 0.30 mg/kg i.p., daily for 10 days, of 10 mice tested): 1
Percent Tumor Inhibition ([17]; 0.35 mg/kg i.p., daily for 10 days): 69%
Toxic Deaths ([17]; 0.35 mg/kg i.p., daily for 10 days, of 10 mice tested): 1
Percent Tumor Inhibition ([17]; 0.40 mg/kg i.p., daily for 10 days): 91%
Toxic Deaths ([17]; 0.40 mg/kg i.p., daily for 10 days, of 9 mice tested): 6
growth of tumor ([17]; tests in mice): inhibited the growth
LD50 [18, 25]: 3.12 mg/kg
LD50 ([18]; oral, read-out: Oral LD50): 8.84 mg/kg
growth of tumor [19]: inhibited the growth
growth of tumor [20]: inhibited the growth
growth of tumor [21]: inhibited the growth
growth of tumor [22]: inhibited the growth
growth of tumor [23]: inhibited the growth

[C-]#[N+]C(=CC1CCC(OC(=O)C=C(C)C)CC1)C(=CC1(OC(C)=O)C=CC(O)CC1)[N+]#[C-] (centres unmarked) [Factor G]
zone of inhibition at 100 µg/mL ([1]; conc 0.1 mg/ml, disc 6.35 mm, ^b overgrowth: factor B): 36 mm
zone of inhibition at 100 µg/mL ([2]; conc 0.1 mg/ml, disc 6.35 mm): 30 mm
zone of inhibition at 100 µg/mL ([3]; conc 0.1 mg/ml, disc 6.35 mm): 32 mm
zone of inhibition at 100 µg/mL ([4]; conc 0.1 mg/ml, disc 6.35 mm, ^b overgrowth: factor F): 10 mm
zone of inhibition at 100 µg/mL ([5]; conc 0.1 mg/ml, disc 6.35 mm, ^b overgrowth: factors B, C, F): 24 mm
zone of inhibition at 100 µg/mL ([6]; conc 0.1 mg/ml, disc 6.35 mm): 41 mm
zone of inhibition at 100 µg/mL ([7]; conc 0.1 mg/ml, disc 6.35 mm): 35 mm
zone of inhibition at 100 µg/mL ([8]; conc 0.1 mg/ml, disc 6.35 mm): 44 mm
zone of inhibition at 100 µg/mL ([9]; conc 0.1 mg/ml, disc 6.35 mm, ^b overgrowth: factors A, C, E, F, G): 27 mm
zone of inhibition at 100 µg/mL ([10]; conc 0.1 mg/ml, disc 6.35 mm): 23 mm
zone of inhibition at 100 µg/mL ([11]; conc 0.1 mg/ml, disc 6.35 mm, read-out: Zone Diameters): 20 mm
zone of inhibition at 100 µg/mL ([11]; in minimal medium, conc 0.1 mg/ml, disc 6.35 mm, read-out: Zone Diameters): 18 mm
zone of inhibition at 100 µg/mL ([12]; conc 0.1 mg/ml, disc 6.35 mm): 23 mm
zone of inhibition at 100 µg/mL ([13]; conc 0.1 mg/ml, disc 6.35 mm, ^b overgrowth: factor C): 17 mm
zone of inhibition at 100 µg/mL [14]: 31 mm
zone of inhibition at 100 µg/mL ([15]; conc 0.1 mg/ml, disc 6.35 mm): 33 mm
Percent Tumor Inhibition ([17]; 0.50 mg/kg i.p., days 1, 5 and 9): 10%
Toxic Deaths ([17]; 0.50 mg/kg i.p., days 1, 5 and 9, of 10 mice tested): 0
Percent Tumor Inhibition ([17]; 0.70 mg/kg i.p., days 1, 5 and 9): 20%
Toxic Deaths ([17]; 0.70 mg/kg i.p., days 1, 5 and 9, of 10 mice tested): 0
Percent Tumor Inhibition ([17]; 1.00 mg/kg i.p., days 1, 5 and 9): 54%
Toxic Deaths ([17]; 1.00 mg/kg i.p., days 1, 5 and 9, of 10 mice tested): 1
Percent Tumor Inhibition ([17]; 1.40 mg/kg i.p., days 1, 5 and 9): 72%
Toxic Deaths ([17]; 1.40 mg/kg i.p., days 1, 5 and 9, of 10 mice tested): 6
Percent Tumor Inhibition ([17]; 2.00 mg/kg i.p., days 1, 5 and 9): 60%
Toxic Deaths ([17]; 2.00 mg/kg i.p., days 1, 5 and 9, of 10 mice tested): 7
Percent Tumor Inhibition ([17]; 2.80 mg/kg i.p., days 1, 5 and 9): toxic
Toxic Deaths ([17]; 2.80 mg/kg i.p., days 1, 5 and 9, of 10 mice tested): 10
LD50 [18, 25]: 7.94 mg/kg
